Measurements as given in patent publication US20240018124A1, “MODULATORS OF FPR1 AND METHODS OF USING THE SAME” (BIOFRONT LTD, priority 2021, published 2024).

Experiments:
FPR1 [1] = biological target: T1, FPR1 (Homo sapiens (Human), UniProt P21462); test: Reactive oxygen species (ROS) assay in human neutrophils stimulated with fMLP; assay type: cell-based; settings: human neutrophils from whole blood; fMLP (500 nM); DCFH-DA fluorescence; read-out: Anti-ROS IC50
Experimental: Reactive Oxygen Species (ROS) Assay
Human whole blood was collected, and ACK lysis buffer (ThermoFisher, A1049201) was added at 3 times the volume of the blood sample to lyse the red blood cells. The sample was incubated on ice for 15 minutes, and gently mixed twice during the incubation. 10 mL DPBS was then added, and the sample was centrifuged for 8 minutes. After removing the supernatant, remaining cells were resuspended in RPMI1640 medium containing 3% FBS and centrifuged again for 10 minutes. After removing the supernatant, cells were again resuspended in RPMI1640 medium containing 3% FBS. Neutrophil cell count was determined using FACS analysis by APC-labeled CD11b antibody (Biolegend, 101211) and FITC-labeled CD66b antibody (Biolegend, 305104). Neutrophils were then plated into 96-well plates (300,000/well). Plates were centrifuged and supernatant was removed. Cells were resuspended in 80 μL of compound solution (prepared in RPMI1640 medium containing 3% FBS), then incubated at room temperature for 15 minutes. 20 μL solution containing DCFH-DA (at the manufacturer's recommended concentration, Yeasen Biotechnology, 50101ES01) and fMLP (500 nM) was then added. Cells were incubated at 37° C. in 5% CO2 for 20 minutes away from light. After incubation, cells were placed on ice for 5 minutes, washed twice with 200 μL ice-cold DPBS, then resuspended in ice-cold DPBS at 100 µL/well. Fluorescence from each sample was measured at 485 nm excitation and 535 nm emission.
(§1) The effects of the compounds of the present disclosure on regulating the FPR1-mediated cell signaling were measured by monitoring the cellular cAMP level change and anti-reactive oxygen species formation in human neutrophils in the presence of an FPR1 agonist, respectively, as illustrated by the examples in Table 1.

FPR1 [2] = biological target: T1, FPR1; test: Cyclic adenosine monophosphate (cAMP) assay, CHO-K1 cells stably overexpressing hFPR1; assay type: cell-based; settings: 2.5 μM Forskolin and 0.25 nM WKYMVm (FPR1 agonist)
Experimental: Cyclic Adenosine Monophosphate (cAMP) Assay
CHO-K1 cells stably overexpressing hFPR1 were plated into 384-well cell culture plates (2,000/well/5 μL) in 1× Stimulation Buffer (LANCE Ultra cAMP Kit, Perkin Elmer, TRF0263). 1 μL compound solution (prepared in ddH2O containing 0.2% DMSO) was added to each well. Plates were centrifuged briefly, and cells were incubated at 37° C. in 5% CO2 for 10 minutes. 4 μL solution containing 2.5 μM Forskolin and 0.25 nM WKYMVm (an FPR1 agonist, GLPBIO, GC15140) was then added to each well. 5 μL of Eu-cAMP solution (diluted to manufacturer's recommended working concentration in Detection Buffer, LANCE Ultra cAMP Kit) and 5 μL of ULight-anti-cAMP solution (diluted in Detection Buffer, LANCE Ultra cAMP Kit) were added to each well. Plates were centrifuged briefly, and cells were incubated at room temperature for 1 hour. Fluorescence emission at 665 nm and 620 nm from the samples was measured by a Perkin Elmer Envision instrument.
as §1

T1 sequence (P21462 whole entry): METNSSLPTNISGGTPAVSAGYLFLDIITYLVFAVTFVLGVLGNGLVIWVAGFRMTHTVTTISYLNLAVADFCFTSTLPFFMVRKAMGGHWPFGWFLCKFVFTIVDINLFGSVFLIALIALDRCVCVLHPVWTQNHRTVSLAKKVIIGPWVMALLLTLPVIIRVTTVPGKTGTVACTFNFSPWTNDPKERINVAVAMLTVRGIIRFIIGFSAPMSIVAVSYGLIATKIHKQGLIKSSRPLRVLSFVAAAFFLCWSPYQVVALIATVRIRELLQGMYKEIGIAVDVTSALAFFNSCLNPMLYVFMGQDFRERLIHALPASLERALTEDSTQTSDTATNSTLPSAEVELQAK

| SMILES | IC50 (FPR1 [1]) | IC50 (FPR1 [2]) |
| --- | --- | --- |
| C[C@H](NC(=O)c1c(NS(=O)(=O)c2ccc(C#N)cc2)c(-c2ccc(F)cc2)nn1C)C(C)(C)C [Compound 1, (S)-4-((4-cyanophenyl)sulfonamido)-N-(3,3-dimethylbutan-2-yl)-3-(4-fluorophenyl)-1-methyl-1H-pyrazole-5-carboxamide] | 100 to 1000 nM | 100 to 1000 nM |
| CC[C@H](C)NC(=O)c1c(NS(=O)(=O)c2ccccc2)c(-c2ccc(F)cc2)nn1C [Compound 3, (S)—N-(sec-butyl)-3-(4-fluorophenyl)-1-methyl-4-(phenylsulfonamido)-1H-pyrazole-5-carboxamide] | – | > 25000 nM |
| C[C@H](NC(=O)c1c(NS(=O)(=O)c2ccc(Cl)cc2)c(-c2ccncc2)nn1C)C(C)(C)C [Compound 5, (S)-4-((4-chlorophenyl)sulfonamido)-N-(3,3-dimethylbutan-2-yl)-1-methyl-3-(pyridin-4-yl)-1H-pyrazole-5-carboxamide] | – | > 25000 nM |
| C[C@H](NC(=O)c1noc(C2CCOCC2)c1NS(=O)(=O)c1ccc(Cl)cc1)C(C)(C)C [Compound 11, (S)-4-((4-chlorophenyl)sulfonamido)-N-(3,3-dimethylbutan-2-yl)-5-(tetrahydro-2H-pyran-4-yl)isoxazole-3-carboxamide] | – | > 25000 nM |
| COCc1cccc(-c2nn(C)c(C(=O)N[C@@H](C)C(C)(C)C)c2NS(=O)(=O)c2ccc(C)cc2)c1 [Compound 15, (S)—N-(3,3-dimethylbutan-2-yl)-3-(3-(methoxymethyl)phenyl)-1-methyl-4-((4-methylphenyl)sulfonamido)-1H-pyrazole-5-carboxamide] | 100 to 1000 nM | > 25000 nM |
| Cc1ccc(S(=O)(=O)Nc2c(C3=CCC(C)(C)CC3)nn(C)c2C(=O)N[C@@H](C)C(C)(C)C)cc1 [Compound 18, (S)—N-(3,3-dimethylbutan-2-yl)-3-(4,4-dimethylcyclohex-1-en-1-yl)-1-methyl-4-((4-methylphenyl)sulfonamido)-1H-pyrazole-5-carboxamide] | – | > 25000 nM |
| Cc1ccc(S(=O)(=O)Nc2c(-c3cccc(OC(F)(F)F)c3)nn(C)c2C(=O)N[C@@H](C)C(C)(C)C)cc1 [Compound 34, (S)—N-(3,3-dimethylbutan-2-yl)-1-methyl-4-((4-methylphenyl)sulfonamido)-3-(3-(trifluoromethoxy)phenyl)-1H-pyrazole-5-carboxamide] | – | > 25000 nM |
| Cc1ccc(S(=O)(=O)Nc2c(-c3cccc(OCC(C)C)c3)nn(C)c2C(=O)N[C@@H](C)C(C)(C)C)cc1 [Compound 35, (S)—N-(3,3-dimethylbutan-2-yl)-3-(3-isobutoxyphenyl)-1-methyl-4-((4-methylphenyl)sulfonamido)-1H-pyrazole-5-carboxamide] | – | > 25000 nM |
| C[C@H](NC(=O)c1c(NS(=O)(=O)c2ccc(Cl)cc2)c(C2=CCC(F)(F)CC2)nn1C)C(C)(C)C [Compound 36, (S)-4-((4-chlorophenyl)sulfonamido)-3-(4,4-difluorocyclohex-1-en-1-yl)-N-(3,3-dimethylbutan-2-yl)-1-methyl-1H-pyrazole-5-carboxamide] | – | > 25000 nM |
| COCc1cncc(-c2nn(C)c(C(=O)N[C@@H](C)C(C)(C)C)c2NS(=O)(=O)c2ccc(Cl)cc2)c1 [Compound 40, (S)-4-((4-chlorophenyl)sulfonamido)-N-(3,3-dimethylbutan-2-yl)-3-(5-(methoxymethyl)pyridin-3-yl)-1-methyl-1H-pyrazole-5-carboxamide] | – | 1000 to 25000 nM |

Continued, values first:

| IC50 (FPR1 [1]) | IC50 (FPR1 [2]) | SMILES |
| --- | --- | --- |
| < 100 nM | 100 to 1000 nM | CO[C@H]1CC[C@@H](c2nn(C)c(C(=O)N[C@@H](C)C(C)(C)C)c2NS(=O)(=O)c2ccc(C)cc2)CC1 [Compound 6, N—((S)-3,3-dimethylbutan-2-yl)-3-((1s,4R)-4-methoxycyclohexyl)-1-methyl-4-((4-methylphenyl)sulfonamido)-1H-pyrazole-5-carboxamide] |
| 100 to 1000 nM | 100 to 1000 nM | C[C@H](NC(=O)c1c(NS(=O)(=O)c2ccc(Cl)cc2)c(C2CCOCC2)nn1C)C(C)(C)C [Compound 9, (S)-4-((4-chlorophenyl)sulfonamido)-N-(3,3-dimethylbutan-2-yl)-1-methyl-3-(tetrahydro-2H-pyran-4-yl)-1H-pyrazole-5-carboxamide] |
| – | > 25000 nM | C[C@H](NC(=O)c1c(NS(=O)(=O)c2ccc(Cl)cc2)c(C2CCOCC2)nn1C1CC1)C(C)(C)C [Compound 10, (S)-4-((4-chlorophenyl)sulfonamido)-1-cyclopropyl-N-(3,3-dimethylbutan-2-yl)-3-(tetrahydro-2H-pyran-4-yl)-1H-pyrazole-5-carboxamide] |
| 100 to 1000 nM | 1000 to 25000 nM | Cc1ccc(S(=O)(=O)Nc2c(C3=CCOCC3)nn(C)c2C(=O)N[C@@H](C)C(C)(C)C)cc1 [Compound 16, (S)-3-(3,6-dihydro-2H-pyran-4-yl)-N-(3,3-dimethylbutan-2-yl)-1-methyl-4-((4-methylphenyl)sulfonamido)-1H-pyrazole-5-carboxamide] |
| < 100 nM | 100 to 1000 nM | CO[C@H]1CC[C@@H](c2nn(C)c(C(=O)N[C@@H](C)C(C)(C)C)c2NS(=O)(=O)c2ccc(Cl)cc2)CC1 [Compound 19, 4-((4-chlorophenyl)sulfonamido)-N—((S)-3,3-dimethylbutan-2-yl)-3-((1S,4R)-4-methoxycyclohexyl)-1-methyl-1H-pyrazole-5-carboxamide] |
| < 100 nM | 100 to 1000 nM | CO[C@H]1CC[C@@H](c2nn(C)c(C(=O)N[C@@H](C)C(C)(C)C)c2NS(=O)(=O)c2ccc(C3CC3)cc2)CC1 [Compound 20, 4-((4-cyclopropylphenyl)sulfonamido)-N—((S)-3,3-dimethylbutan-2-yl)-3-((1S,4R)-4-methoxycyclohexyl)-1-methyl-1H-pyrazole-5-carboxamide] |
| < 100 nM | < 100 nM | CO[C@H]1CC[C@@H](c2nn(C)c(C(=O)N[C@@H](C)C(C)(C)C)c2NS(=O)(=O)c2ccc(C#N)cc2)CC1 [Compound 21, 4-((4-cyanophenyl)sulfonamido)-N—((S)-3,3-dimethylbutan-2-yl)-3-((1S,4R)-4-methoxycyclohexyl)-1-methyl-1H-pyrazole-5-carboxamide] |
| < 100 nM | 100 to 1000 nM | COC1CC=C(c2nn(C)c(C(=O)N[C@@H](C)C(C)(C)C)c2NS(=O)(=O)c2ccc(Cl)cc2)CC1 (stereo partly drawn) [Compound 22, 4-((4-chlorophenyl)sulfonamido)-N—((S)-3,3-dimethylbutan-2-yl)-3-(4-methoxycyclohex-1-en-1-yl)-1-methyl-1H-pyrazole-5-carboxamide] |
| 1000 to 25000 nM | 1000 to 25000 nM | C[C@H](NC(=O)c1c(NS(=O)(=O)c2ccc(Cl)cc2)c(C2CCC3(CC2)OCCO3)nn1C)C(C)(C)C [Compound 23, (S)-4-((4-chlorophenyl)sulfonamido)-N-(3,3-dimethylbutan-2-yl)-1-methyl-3-(1,4-dioxaspiro[4.5]decan-8-yl)-1H-pyrazole-5-carboxamide] |
| – | > 25000 nM | Cc1ccc(S(=O)(=O)Nc2c(C3=CCC(F)(F)CC3)nn(C)c2C(=O)N[C@@H](C)C(C)(C)C)cc1 [Compound 29, (S)-3-(4,4-difluorocyclohex-1-en-1-yl)-N-(3,3-dimethylbutan-2-yl)-1-methyl-4-((4-methylphenyl)sulfonamido)-1H-pyrazole-5-carboxamide] |
| – | 1000 to 25000 nM | Cc1ccc(S(=O)(=O)Nc2c(C3=CCOCC3)nn(C)c2C(=O)N[C@@H](C)C(C)(C)C)cc1 [Compound 30, (S)-3-(3,6-dihydro-2H-pyran-4-yl)-N-(3,3-dimethylbutan-2-yl)-1-methyl-4-((4-methylphenyl)sulfonamido)-1H-pyrazole-5-carboxamide] |
| – | > 25000 nM | Cc1ccc(S(=O)(=O)Nc2c(C3(O)CCOCC3)nn(C)c2C(=O)N[C@@H](C)C(C)(C)C)cc1 [Compound 31, (S)—N-(3,3-dimethylbutan-2-yl)-3-(4-hydroxytetrahydro-2H-pyran-4-yl)-1-methyl-4-((4-methylphenyl)sulfonamido)-1H-pyrazole-5-carboxamide] |
| – | 1000 to 25000 nM | Cc1ccc(S(=O)(=O)Nc2c(C3=CCC(C#N)CC3)nn(C)c2C(=O)N[C@@H](C)C(C)(C)C)cc1 (stereo partly drawn) [Compound 32, 3-(4-cyanocyclohex-1-en-1-yl)-N—((S)-3,3-dimethylbutan-2-yl)-1-methyl-4-((4-methylphenyl)sulfonamido)-1H-pyrazole-5-carboxamide] |
